Source: paper PMC4074120, “Discovery of Novel GPVI Receptor Antagonists by Structure-Based Repurposing” (PLoS ONE, 2014)

Target: T1, GPVI (platelet glycoprotein VI) (Homo sapiens, UniProt Q9HCN6)
T1 construct: gene GP6; native receptor on washed human platelets
T1 sequence (Q9HCN6 21-339): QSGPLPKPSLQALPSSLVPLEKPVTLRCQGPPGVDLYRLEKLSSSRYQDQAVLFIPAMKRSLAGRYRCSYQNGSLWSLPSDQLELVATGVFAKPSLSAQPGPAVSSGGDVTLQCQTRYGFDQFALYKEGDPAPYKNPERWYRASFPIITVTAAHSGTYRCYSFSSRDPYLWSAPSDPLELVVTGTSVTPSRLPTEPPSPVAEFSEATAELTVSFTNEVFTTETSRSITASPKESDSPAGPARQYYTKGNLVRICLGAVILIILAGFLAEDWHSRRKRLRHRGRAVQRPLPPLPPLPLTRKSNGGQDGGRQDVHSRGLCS
Experiment: Inhibition of CRP-XL/collagen-induced Ca2+ release and aggregation in washed human platelets; rightward shift of CRP-XL curve
Assay type: cell-based
Settings: read-out: Ca^2+ RELEASE / CRP

Compound `CN(C)CCCSc1ccccc1NC(=O)/C=C/c1ccccc1` [cinanserin] has an IC50 of 40 µM.
